Source: the CheMixHub viscosity set

Test: xn = mol fraction of the nth substance listed

ClC=C(Cl)Cl + CCCO
viscosity [mPa·s]
Conditions	x1 = 0.0848	x1 = 0.1725	x2 = 0.024	x2 = 0.1062	x2 = 0.253	x2 = 0.3927	x2 = 0.5454	x2 = 0.6998	x2 = 0.9543
298.15 K, 101.3 kPa	1.705	1.485	–	–	–	–	–	–	–
303.15 K, 101 kPa	–	–	0.598	0.692	0.86	1.019	1.193	1.37	1.537
313.15 K, 101 kPa	–	–	0.55	0.617	0.735	0.848	0.97	1.095	1.219
323.15 K, 101 kPa	–	–	0.487	0.539	0.634	0.722	0.82	0.919	1.018

O=C1CCCC1 + CCCCN
303.15 K, 101.33 kPa
Conditions	viscosity [mPa·s]
x2 = 0.0957	1.45
x2 = 0.2075	1.902
x2 = 0.3126	2.204
x2 = 0.4731	2.34
x2 = 0.5364	2.252
x2 = 0.6816	1.904
x2 = 0.7758	1.552
x2 = 0.8894	1.073

O=C[O-].OCC[NH2+]CCO + O
100 kPa
Conditions	viscosity [mPa·s]
293.15 K, x2 = 0.8484	8.19
303.15 K, x2 = 0.4068	75.66
303.15 K, x2 = 0.4845	65.08
303.15 K, x2 = 0.7816	11.05
303.15 K, x2 = 0.8484	5.927
313.15 K, x2 = 0.2013	99.28
313.15 K, x2 = 0.2622	77.5
313.15 K, x2 = 0.7816	7.98
323.15 K, x2 = 0.2013	61.45
323.15 K, x2 = 0.7816	6.008
323.15 K, x2 = 0.9708	0.9306

NC1CCCCC1 + CS(C)=O
303.15 K, 101 kPa
Conditions	viscosity [mPa·s]
x2 = 0.1	1.571
x2 = 0.1807	1.518
x2 = 0.2707	1.481
x2 = 0.3707	1.467
x2 = 0.4679	1.47
x2 = 0.5654	1.497
x2 = 0.6703	1.542
x2 = 0.7894	1.611
x2 = 0.8913	1.692

Cc1ccccn1 + Cc1ccccc1
viscosity [mPa·s], 101 kPa
Conditions	x2 = 0.2	x2 = 0.4	x2 = 0.6	x2 = 0.8
293.15 K	0.76	0.714	0.668	0.624
313.15 K	0.593	0.558	0.525	0.494

CC(CCO)CC(C)(C)C (stereo not given) + CCOC(C)=O
viscosity [mPa·s], 101.33 kPa
Conditions	x2 = 0.1539	x2 = 0.2904	x2 = 0.4122	x2 = 0.5219	x2 = 0.6208	x2 = 0.7106	x2 = 0.7925	x2 = 0.8677	x2 = 0.9364
298.15 K	5.471	3.367	2.072	1.443	1.075	0.879	0.672	0.514	0.486
303.15 K	4.696	2.968	1.837	1.305	0.975	0.789	0.631	0.526	0.475
308.15 K	4.016	2.452	1.646	1.181	0.934	0.724	0.586	0.495	0.439

NC1CCCCC1 + CCC(C)O
298.15 K, 101 kPa
Conditions	viscosity [mPa·s]
x1 = 0.0767	2.804
x1 = 0.1574	2.619
x1 = 0.2426	2.472
x1 = 0.3325	2.369
x1 = 0.4277	2.302
x1 = 0.5285	2.25
x1 = 0.6355	2.224
x1 = 0.7493	2.148
x1 = 0.8706	2.002
